Broadly, the Ki is the dissociation constant of the complex between target and ligand, obtained from inhibition or displacement. Higher therefore signals a looser hold on the target.

Each structure is given as a SMILES string.

The target of this assay is PMN LTB4 receptor (Homo sapiens, UniProt Q15722). Briefly: LTB4 Human Neutrophil (PMN) Binding Assay.
PMN LTB4 receptor, sequence (Q15722 whole entry): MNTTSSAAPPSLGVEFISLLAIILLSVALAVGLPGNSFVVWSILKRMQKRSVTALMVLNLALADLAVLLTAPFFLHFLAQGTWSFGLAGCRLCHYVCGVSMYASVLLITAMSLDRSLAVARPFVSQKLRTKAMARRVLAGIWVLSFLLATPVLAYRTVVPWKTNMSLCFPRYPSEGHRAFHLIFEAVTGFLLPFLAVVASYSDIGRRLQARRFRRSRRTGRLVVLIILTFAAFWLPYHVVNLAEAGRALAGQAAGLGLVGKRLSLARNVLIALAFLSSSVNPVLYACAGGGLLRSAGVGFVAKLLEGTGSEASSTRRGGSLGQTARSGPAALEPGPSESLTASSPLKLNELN

Protocol: Heparinized blood was placed on a ficol gradient followed by its sedimentation with dextran. […] The PMN solution was adjusted to achieve a concentration of 8 X 10^6 PMN/ml. […] Very briefly, the assay was performed as follows; [3H]LTB4 (1 nM) and test agent were placed into a 96 well microplate with filters (0.65 µm pore size). PMN solution (8 x 10^6/ml) was added and the microplate incubated for 10 min at 4° C. The microplate was then placed on Millipore filtration system; the wells washed with cold saline (3 x) and dried. The filters were removed from the microplate; placed into scintillation fluid and the concentration of [3H]LTB4 determined.

`CCc1cc(-c2ccc(F)cc2)c(O)cc1OCCCCC(C)(C)CNC(=O)c1ccc(NN=Cc2ccccc2)nc1` [IIa] gave a Ki of 8 nM.
